“Also recorded” adds a separate entry of the source. Where a SMILES comes first, the peptide text is derived from it. [ ]: non-standard residue; d: D form. Phe(4-NH2) = Nc1ccc(C[C@H](N)C(=O)O)cc1; 2Nal = N[C@@H](Cc1ccc2ccccc2c1)C(=O)O
What was measured:
PC12 cells [1] = experiment: AChE activity assay (Ellman reagent) in PC12 cells treated with T30; type: cell-based; conditions: combined with T30 (1 μM)
Protocol: AChE activity was measured using the Ellman reagent that measures the presence of thiol groups as a result of AChE activity. In the case of the G4 experiment, AChE (G4) activity was tested alone and also together with either NBP14 or Tri peptides. PC12 cells were plated the day before the experiment as for the cell viability assay. Cells were treated with T30 (1 μM) alone or combined with NBP14 or Tri peptide (0.5 μM). After treatment, supernatant (perfusate) of each treatment was collected and 25 μL from each condition were added to a new flat bottomed 96 well plate followed by the addition of 175 μl of Ellman reagent (Solution A: KH2PO4 139 mM and K2HPO4 79.66 mM, pH 7.0; solution B (substrate): Acetylthiocholine Iodide 11.5 mM; Solution C (Reagent): 5,5′-dithiobis(2-nitrobenzoic acid) 8 mM and NaHCO3 15 mM). The Ellman reagent was prepared as a mixture of the 3 solutions in a ratio 33(A):3(B):4(C). Absorbance measurements were taken for an interval of 60 minutes across experiments at 405 nm in a Vmax plate reader (Molecular devices, Wokingham, UK).
In each of the different cell techniques, the statistics analysis was performed with the average of the percentage values of 3 or more experiments. […]

[2] = test system: rat basal forebrain slices; experiment: voltage-sensitive dye imaging (VSDI) on brain slices, Example 5; type: cell-based
Protocol: Male Wistar rats (14 days old) were anaesthetised using isoflurane (˜15 ml, 100% w/w). Isoflurane was applied to the cotton bed at the bottom of an anaesthetic chamber (glass box 20×15×15 cm) where rats were then placed for approximately 45 s until complete anaesthesia was reached. The hind paw of each anaesthetised rat was pinched to check for the appropriate depth of anaesthesia. Upon confirmation of anaesthesia, rats were quickly decapitated, with the brain being quickly removed and immersed in ice cold oxygenated ‘slicing’ artificial cerebrospinal fluid (aCSF in mmol: 120 NaCl, 5 KCL, 20 NaHCO3, 2.4 CaCl2 2 MgSO4, 1.2 KH2PO4, 10 glucose, 6.7 HEPES salt and 3.3 HEPES acid; pH=7.1). Coronal slices (400 μm thick) were then taken from a block of brain containing the basal forebrain, namely the MS-dBB complex (between +9.20 and +9.48 mm Interaural and +0.48 and +0.2 mm Bregma, FIG. 4A) and the somatosensory barrel field cortex (SiBF, between +8.08 and +7.20 mm Interaural and −0.92 mm and −1.80 mm Bregma) (Paxinos and Watson, 1998) using a Vibratome (Leica VTi000S).
Slices were then transferred to a bubbler pot containing oxygenated aCSF at room temperature (recording aCSF in mmol: 124 NaCl, 5 KCL, 20 NaHCO3, 2.4 CaCl2 2 MgSO4, 1.3 KH2PO4, 10 glucose; pH=7.4) which was identical to that used in VSDI (voltage sensitive dye imaging) recording. Slices were then left for approximately 1-1.5 hours before preparing them for VSD staining.
Slices were placed in a dark, high humidity chamber filled with aCSF bubbled with 95% O2, 5% CO2. Once there, the dye solution (4% 0.2 mM styryl dye pyridinium 4-[2-[6-(dibutylamino)-2-napthalenyl]-ethenyl]-1-(3-sulfopropyl)hydroxide (Di-4-NEPPS), Invitrogen, Paisley, UK in 48% aCSF, 48% foetal bovine serum, 3.5% DMSO and 0.4% cremophore EL) (Tominaga et al., 2000) was applied to the slices for 20-25 minutes before being transferred back to a bubbler pot containing oxygenated aCSF kept at room temperature for 30 minutes.
When starting the VSDI recordings, slices were placed in the recording bath on a small piece of filter paper to allow the flow of oxygenated aCSF on the underside of the slice and in order to keep it alive. The slice was then weighed down by a home-made plastic grid that was placed on top of the slice. […] For the acquisition of VSD data, 2 dimensional images, equivalent to 88×60 pixels, were recorded using the MiCamo2 High Resolution camera (Brain Vision, Japan) with BV_Analyze imaging software. […] Light was generated using an Osram halogen xenophot 64634 HLX EFR Display/Optic lamp and was filtered to emit green (530±10 nm) light using a MHF-G150LR (Moritex Corporation) coupled to the MiCamo2 High resolution imaging system and filtered the emitted fluorescence through a >590 nm high pass filter. […]

[3] = stability / degradation in rat blood; type: in vitro ADME; conditions: rat blood diluted with PBS
Protocol: (§1) Test compounds were spiked at 10 μg/ml into either PBS or blood (Male Wistar rat or Human) diluted with PBS, and a series of samples taken according to the following scheme:
(§2) Procaine, a compound known to be unstable in blood, was included as a positive control (ran with 5-fold diluted blood only). The sampling procedure was to add an aliquot to ice-cold acetonitrile, centrifuge, and store the supernatant on dry ice until analysis. Analysis by UHPLC-TOF mass spectrometry using electrospray ionisation was performed on the same day as the incubations were performed.

[4] = stability / degradation in human blood; type: in vitro ADME; conditions: human blood diluted with PBS
Protocol: as §1, §2

PC12 cells [5] = experiment: Calcium fluorometry (Fluo-8, PNU282987-induced calcium increase) in PC12 cells; type: cell-based; conditions: in conjunction with T30, PC12 cells
Protocol: PC12 cells were plated in 200 μl of Dulbecco's Modified Eagle's medium (DMEM) plus 2 mM of L-glutamine medium the day before the experiment in 96 well plates. On the day of the experiment, the Fluo-8 solution (Abcam) was prepared as described by the provider by adding 20 μl of Fluo-8 in the assay buffer that contains 9 ml of Hank's Balanced Salt Solution (HBSS) and 1 ml of pluronic F127 Plus. Subsequently, 100 μl of growth medium was removed and 100 μl of Fluo-8 solution were added. Treatments with T30 in conjunction with NBP14 or Tri peptides were added and incubated for 30 minutes in the incubator and 30 minutes room temperature. After 1 h, the plate was placed in the fluorescence plate reader (Fluostar, Optima, BMG Labtech, Ortenberg, Germany). Before reading the fluorescence, PNU282987 1 μM, an alpha7 specific agonist of the nicotinic receptors, was prepared and placed in the Fluostar injector. For each well, the reading was formed by a basal fluorescence reading followed by PNU282987 injection that induced an increase of calcium via nicotinic receptors.
In each of the different cell techniques, the statistics analysis was performed with the average of the percentage values of 3 or more experiments. Comparisons between multiple treatment groups and the same control were performed by one-way analysis of variance (ANOVA) and Tukey's post-hoc tests using GraphPAD Instat (GraphPAD software, San Diego, California). Statistical significance was taken at a p value<0.05.

α7 nicotinic-receptor = α7 nicotinic-receptor (Homo sapiens, UniProt P36544); conditions: cited from earlier work
Chain of α7 nicotinic-receptor (P36544 23-502): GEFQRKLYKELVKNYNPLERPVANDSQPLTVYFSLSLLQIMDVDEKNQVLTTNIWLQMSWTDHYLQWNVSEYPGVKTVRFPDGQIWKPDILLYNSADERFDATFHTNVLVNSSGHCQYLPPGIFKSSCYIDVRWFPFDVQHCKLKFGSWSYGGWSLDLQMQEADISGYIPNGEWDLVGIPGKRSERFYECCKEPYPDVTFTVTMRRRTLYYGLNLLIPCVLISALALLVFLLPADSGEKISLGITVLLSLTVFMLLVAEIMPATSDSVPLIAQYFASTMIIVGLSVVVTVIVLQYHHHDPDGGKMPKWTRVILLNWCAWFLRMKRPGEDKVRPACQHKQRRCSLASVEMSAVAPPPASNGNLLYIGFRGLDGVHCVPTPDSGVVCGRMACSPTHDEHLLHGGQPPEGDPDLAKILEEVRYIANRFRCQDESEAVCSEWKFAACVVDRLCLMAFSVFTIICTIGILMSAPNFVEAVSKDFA

SMILES | protection against T30-induced AChE activity (PC12 cells [1]) | blocking of T30-induced deviations from baseline (VSDI) ([2]; 4 μM co-perfused with T30 (2 uM)) | change in magnitude (summed fluorescence) of evoked responses, compound alone ([2]; 4 μM in perfusate, no T30) | stability in blood ([3]; 10 μg/ml, up to 60 min) | degradants detected ([3]; UHPLC-TOF MS) | stability in blood ([4]; 10 μg/ml, up to 60 min) | degradants detected ([4]; UHPLC-TOF MS) | protection against T30-induced calcium influx (PC12 cells [5]) | affinity for the α7 nicotinic-receptor (α7 nicotinic-receptor) [µM]
CC(=O)N[C@@H](Cc1ccc2ccccc2c1)C(=O)N[C@@H](Cc1ccc(N)cc1)C(=O)N[C@@H](Cc1c[nH]c2ccccc12)C(N)=O [Tri02, 4-((S)-2((S)-2-acetamido-3-(naphthalene-2-yl)propanamido)-3-(((S)-1-amino-3-(1H-indol-3-yl)-1-oxopropan-2-yl)amino)-3-oxopropyl)benzenaminium] (Ac-[2Nal]-[Phe(4-NH2)]-Trp-NH2) | protects against the toxic effects of T30 | not found to protect against T30-induced deviations from baseline; also recorded: some efficacy in blocking those T30-induced deviation | recapitulates results seen with application of 4 μM NBP14; also recorded: small alterations | some instability | a variety of degradants were detected | some instability | a variety of degradants were detected | protects against the toxic effects of T30 | –
COc1ccc2c3c1O[C@H]1C[C@@H](O)C=C[C@@]31CCN(C)C2 [galanthamine] | – | – | – | – | – | – | – | – | 10

— patent US11939398B2, “Modified peptides for use in treating neurodegenerative disorders” (Neuro-Bio Ltd, priority 2016, dated 2024)
